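Tested at 5 concentrations; 48 h exposure; 96-well plates; endpoints linearly interpolated, else capped at highest concentration. Abbreviation: GI50, concentration required for 50% inhibition of growth.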 The source made the active and inactive calls. No stated cut-off is given here; in the data, active = GI50 up to about 1.1 µM and inactive = higher.
What was measured:
Experiment in all cases: NCI tumour cell line growth inhibition, 48 h
DU-145 = test system: DU-145
COLO 205 = test system: COLO 205
SW-620 = test system: SW-620
MDA-MB-435 = test system: MDA-MB-435
SN12C = test system: SN12C
NCI-H460 = test system: NCI-H460
IGROV-1 = test system: IGROV-1
MOLT-4 = test system: MOLT-4
M14 = test system: M14
786-0 = test system: 786-0
HL-60 = test system: HL-60
HCC 2998 = test system: HCC 2998
HCT-15 = test system: HCT-15
OVCAR-5 = test system: OVCAR-5
SNB-19 = test system: SNB-19
SK-MEL-2 = test system: SK-MEL-2
RXF 393 = test system: RXF 393
CAKI-1 = test system: CAKI-1
KM12 = test system: KM12
NCI-H522 = test system: NCI-H522

Row | SMILES | GI50 (DU-145) | GI50 (COLO 205) | GI50 (SW-620) | GI50 (MDA-MB-435) | GI50 (SN12C) | GI50 (NCI-H460) | GI50 (IGROV-1) | GI50 (MOLT-4) | GI50 (M14) | GI50 (786-0) | GI50 (HL-60) | GI50 (HCC 2998) | GI50 (HCT-15) | GI50 (OVCAR-5) | GI50 (SNB-19) | GI50 (SK-MEL-2) | GI50 (RXF 393) | GI50 (CAKI-1) | GI50 (KM12) | GI50 (NCI-H522)
1 | Nn1nnc2ccccc21 | > 100 µM (inactive) | > 100 µM (inactive) | > 100 µM (inactive) | > 100 µM (inactive) | > 100 µM (inactive) | > 100 µM (inactive) | > 100 µM (inactive) | > 100 µM (inactive) | > 100 µM (inactive) | > 100 µM (inactive) | > 100 µM (inactive) | > 100 µM (inactive) | > 100 µM | > 100 µM (inactive) | > 100 µM (inactive) |  |  |  |  | 
2 | Cn1c(=O)sc2cc(C(=S)N3CCC(Cc4ccccc4)CC3)ccc21 | 84.5 µM (inactive) | 83.2 µM (inactive) | > 100 µM (inactive) | 27.5 µM (inactive) | > 100 µM (inactive) | 27.8 µM (inactive) | 33.8 µM (inactive) | 20.9 µM (inactive) | 33.3 µM (inactive) | > 100 µM (inactive) | 22.5 µM (inactive) |  | 99.5 µM | > 100 µM (inactive) | > 100 µM (inactive) | > 100 µM (inactive) | 21.6 µM (inactive) | 61.5 µM (inactive) | 34.7 µM (inactive) | 
3 | CCOC(=O)C[n+]1cccc(C2(c3cc4ccccc4[nH]3)OCCO2)c1 | > 100 µM (inactive) | > 100 µM (inactive) | > 100 µM (inactive) | > 100 µM (inactive) |  | > 100 µM (inactive) | > 100 µM (inactive) | > 100 µM (inactive) | > 100 µM (inactive) | > 100 µM (inactive) | > 100 µM (inactive) | > 100 µM (inactive) | > 100 µM | > 100 µM (inactive) | > 100 µM (inactive) | > 100 µM (inactive) | > 100 µM (inactive) | > 100 µM (inactive) | > 100 µM (inactive) | 
4 | O=C1c2c(O)cccc2C(C(=O)CCCCC(=O)C2c3cccc(O)c3C(=O)c3c(O)cccc32)c2cccc(O)c21 | 0.671 µM (active) | 0.759 µM (active) | 0.925 µM (active) | 0.809 µM (active) | 0.83 µM (active) | 0.403 µM (active) |  | 0.979 µM (active) | 0.897 µM (active) | 2.24 µM (inactive) | 0.485 µM (active) | 0.791 µM (active) | 0.662 µM | 0.528 µM (active) | 0.288 µM (active) | 0.54 µM (active) |  | 3.92 µM (inactive) | 0.607 µM (active) | 0.543 µM (active)
5 | O=C(Nc1ccc(Cl)cc1)c1cc2c(cc1Cl)SC(NNCCO)=NS2(=O)=O | > 100 µM (inactive) | 49.7 µM (inactive) | > 100 µM (inactive) | > 100 µM (inactive) |  | > 100 µM (inactive) | > 100 µM (inactive) | > 100 µM (inactive) | > 100 µM (inactive) | > 100 µM (inactive) | > 100 µM (inactive) | > 100 µM (inactive) | > 100 µM |  | > 100 µM (inactive) | > 100 µM (inactive) | > 100 µM (inactive) | > 100 µM (inactive) | > 100 µM (inactive) | 
6 | CNc1nnc(CCCCCCCCc2nnc(NC)o2)o1 | > 100 µM (inactive) | > 100 µM (inactive) | 40.7 µM (inactive) | 63.8 µM (inactive) | > 100 µM (inactive) | 42 µM (inactive) | > 100 µM (inactive) | 34.7 µM (inactive) | > 100 µM (inactive) | 21.1 µM (inactive) | 32.4 µM (inactive) |  | 27.8 µM | > 100 µM (inactive) | > 100 µM (inactive) | > 100 µM (inactive) | > 100 µM (inactive) | 14.8 µM (inactive) | > 100 µM (inactive) | 
7 | Cc1cc(C)c(C#N)c(SC(=S)NC(=O)c2ccc(Cl)cc2)n1 | > 100 µM (inactive) | > 100 µM (inactive) | > 100 µM (inactive) | > 100 µM (inactive) |  | > 100 µM (inactive) |  |  | > 100 µM (inactive) | > 100 µM (inactive) |  | > 100 µM (inactive) | > 100 µM | > 100 µM (inactive) | > 100 µM (inactive) | > 100 µM (inactive) | > 100 µM (inactive) | > 100 µM (inactive) | > 100 µM (inactive) | 
8 | COC(=O)/C=C(\S/C(=C(/c1ccccc1)n1cc(C(=O)OC)c(C(=O)OC)n1)c1ccccc1)C(=O)OC | 14.7 µM (inactive) | 1.74 µM (inactive) | 2.37 µM (inactive) | 15.8 µM (inactive) | 16.5 µM (inactive) | 30.8 µM (inactive) | 17.7 µM (inactive) | 2.31 µM (inactive) | 12.9 µM (inactive) | 4.79 µM (inactive) | 3.26 µM (inactive) |  | 11.6 µM | 18.7 µM (inactive) | 19.5 µM (inactive) | 14.9 µM (inactive) | 13.6 µM (inactive) | 2.48 µM (inactive) | 54.6 µM (inactive) | 
9 | Cc1nc(N)c(N2CCN(C(=O)O)CC2)c(O)n1 | > 100 µM (inactive) | > 100 µM (inactive) | > 100 µM (inactive) | > 100 µM (inactive) | > 100 µM (inactive) | > 100 µM (inactive) |  | > 100 µM (inactive) | > 100 µM (inactive) | > 100 µM (inactive) | > 100 µM (inactive) | > 100 µM (inactive) | > 100 µM | > 100 µM (inactive) | > 100 µM (inactive) | > 100 µM (inactive) |  |  | > 100 µM (inactive) | > 100 µM (inactive)
10 | COC(=O)Nc1nc(=O)c2ccccc2[nH]1 | > 100 µM (inactive) | > 100 µM (inactive) | 79.6 µM (inactive) |  | > 100 µM (inactive) | > 100 µM (inactive) | > 100 µM (inactive) | > 100 µM (inactive) | > 100 µM (inactive) | > 100 µM (inactive) | > 100 µM (inactive) | > 100 µM (inactive) | > 100 µM | > 100 µM (inactive) | > 100 µM (inactive) | > 100 µM (inactive) | 36.8 µM (inactive) | > 100 µM (inactive) | 90.4 µM (inactive) | 50.1 µM (inactive)
11 | CCN(CC)C(=O)Cn1c2ccccc2[n+]2cc(N)ccc12 | > 100 µM (inactive) | > 100 µM (inactive) | > 100 µM (inactive) | > 100 µM (inactive) |  | > 100 µM (inactive) | > 100 µM (inactive) | > 100 µM (inactive) | > 100 µM (inactive) | > 100 µM (inactive) | > 100 µM (inactive) | > 100 µM (inactive) | > 100 µM | > 100 µM (inactive) | > 100 µM (inactive) | > 100 µM (inactive) | > 100 µM (inactive) | > 100 µM (inactive) | > 100 µM (inactive) | 
12 | O=C(Cc1ccc(O)c(O)c1)NCc1c[nH]c2ccccc12 | 29.1 µM (inactive) | 42 µM (inactive) | 92 µM (inactive) |  |  | 40.6 µM (inactive) |  | 20.4 µM (inactive) | 35.5 µM (inactive) | 33.7 µM (inactive) | 27 µM (inactive) | 62.2 µM (inactive) | 61.1 µM | > 100 µM (inactive) | 94 µM (inactive) | > 100 µM (inactive) | 29 µM (inactive) | 31.2 µM (inactive) | 71.4 µM (inactive) | 32.6 µM (inactive)
13 | CC(CO)(CBr)COC(=O)c1cc(Br)c(N)c(Br)c1 (stereo unspecified) | 48.8 µM (inactive) | > 100 µM (inactive) | > 100 µM (inactive) | 98.9 µM (inactive) | > 100 µM (inactive) |  | 33.9 µM (inactive) | > 100 µM (inactive) | > 100 µM (inactive) | 50.1 µM (inactive) | > 100 µM (inactive) | > 100 µM (inactive) | > 100 µM | > 100 µM (inactive) | 54.7 µM (inactive) | > 100 µM (inactive) |  | 81.3 µM (inactive) | > 100 µM (inactive) | 
14 | Cc1c(-c2nc(N)c(C#N)c(N)c2C#N)c(=O)oc2ccccc12 | > 100 µM (inactive) | 60.7 µM (inactive) | 68.5 µM (inactive) | > 10 µM (inactive) | > 100 µM (inactive) | > 100 µM (inactive) | 9.46 µM (inactive) |  | > 100 µM (inactive) | 73.8 µM (inactive) | 63.5 µM (inactive) | > 100 µM (inactive) | 80.7 µM | > 100 µM (inactive) | > 100 µM (inactive) | > 100 µM (inactive) | > 100 µM (inactive) | > 100 µM (inactive) | 68.4 µM (inactive) | 
15 | Cc1ccccc1N/C(=C(/C(Cl)=C(Cl)Cl)[N+](=O)[O-])n1nnc2ccccc21 | 22.4 µM (inactive) | 15.7 µM (inactive) | 15.9 µM (inactive) | 16.5 µM (inactive) | 17 µM (inactive) | 14.2 µM (inactive) |  | > 100 µM (inactive) | 24.5 µM (inactive) | 34 µM (inactive) |  | 18 µM (inactive) | 15.4 µM | 16.8 µM (inactive) | 19.6 µM (inactive) | 10.8 µM (inactive) |  | 20.4 µM (inactive) | 15.9 µM (inactive) | 
16 | Cn1c(=O)c2[nH]c(-n3nc(-c4ccccc4)cc3N)nc2n(C)c1=O | 7.93 µM (inactive) | 7.05 µM (inactive) |  | 18 µM (inactive) | 4.6 µM (inactive) | 3.3 µM (inactive) | 1.34 µM (inactive) | 7.14 µM (inactive) | 10.5 µM (inactive) | 6.18 µM (inactive) | 12 µM (inactive) | 8.67 µM (inactive) | 0.8 µM | 21.3 µM (inactive) |  | 14.6 µM (inactive) | 26.8 µM (inactive) | 2.12 µM (inactive) | 6.58 µM (inactive) | 

— ChEMBL document CHEMBL1201862, “PubChem BioAssay data set” (2004)
